Biological target: human TopoII (TopoIIα) (Homo sapiens, UniProt P11388)
Experiment: kinetoplast DNA decatenation assay
Format: biochemical

human TopoII (TopoIIα), sequence (P11388 whole entry): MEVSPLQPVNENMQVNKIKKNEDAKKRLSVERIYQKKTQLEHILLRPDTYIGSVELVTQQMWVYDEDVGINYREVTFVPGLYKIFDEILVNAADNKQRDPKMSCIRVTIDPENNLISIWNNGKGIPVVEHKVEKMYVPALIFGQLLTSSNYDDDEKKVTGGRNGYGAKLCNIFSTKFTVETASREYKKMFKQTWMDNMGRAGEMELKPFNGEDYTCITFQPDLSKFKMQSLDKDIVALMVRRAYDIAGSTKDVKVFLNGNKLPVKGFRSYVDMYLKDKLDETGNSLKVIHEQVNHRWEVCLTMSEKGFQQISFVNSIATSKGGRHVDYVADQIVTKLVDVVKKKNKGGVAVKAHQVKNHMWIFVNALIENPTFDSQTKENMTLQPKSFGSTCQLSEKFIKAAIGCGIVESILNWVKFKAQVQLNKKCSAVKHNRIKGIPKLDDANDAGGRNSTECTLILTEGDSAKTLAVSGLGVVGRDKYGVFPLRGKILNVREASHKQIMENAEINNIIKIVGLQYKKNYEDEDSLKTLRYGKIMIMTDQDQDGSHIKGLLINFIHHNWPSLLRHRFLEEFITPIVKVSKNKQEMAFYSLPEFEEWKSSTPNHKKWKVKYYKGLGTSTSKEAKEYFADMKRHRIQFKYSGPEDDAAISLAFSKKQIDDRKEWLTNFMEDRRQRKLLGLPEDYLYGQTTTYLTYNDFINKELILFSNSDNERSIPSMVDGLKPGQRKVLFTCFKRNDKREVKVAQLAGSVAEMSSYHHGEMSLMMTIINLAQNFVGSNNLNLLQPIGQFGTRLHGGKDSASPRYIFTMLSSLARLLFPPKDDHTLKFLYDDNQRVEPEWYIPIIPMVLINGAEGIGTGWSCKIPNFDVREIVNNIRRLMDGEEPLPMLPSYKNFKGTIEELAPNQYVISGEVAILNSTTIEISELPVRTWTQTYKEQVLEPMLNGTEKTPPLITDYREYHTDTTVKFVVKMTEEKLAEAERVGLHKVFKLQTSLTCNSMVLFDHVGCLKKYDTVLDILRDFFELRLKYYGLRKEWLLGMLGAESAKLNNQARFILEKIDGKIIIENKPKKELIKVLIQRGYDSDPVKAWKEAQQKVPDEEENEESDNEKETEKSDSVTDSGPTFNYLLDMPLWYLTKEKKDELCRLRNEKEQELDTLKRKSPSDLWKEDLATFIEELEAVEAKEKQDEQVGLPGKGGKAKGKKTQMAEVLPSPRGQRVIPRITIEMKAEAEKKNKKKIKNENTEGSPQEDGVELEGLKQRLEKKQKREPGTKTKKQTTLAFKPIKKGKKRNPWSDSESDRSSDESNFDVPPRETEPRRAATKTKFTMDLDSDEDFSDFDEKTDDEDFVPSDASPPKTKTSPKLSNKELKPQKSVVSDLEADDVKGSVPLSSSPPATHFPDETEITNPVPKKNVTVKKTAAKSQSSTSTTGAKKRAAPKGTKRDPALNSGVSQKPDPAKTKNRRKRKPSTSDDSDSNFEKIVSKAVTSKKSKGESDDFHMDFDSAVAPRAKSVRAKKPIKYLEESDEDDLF

IC50: ~80 µM
Compound: CC(=O)O[C@@H]1[C@@H](C)O[C@@H](c2ccc3c(c2O)[C@@H](O)[C@]24O[C@@]2(C3=O)[C@@]2(O)C(=O)C=C(C)C[C@@]2(O)C[C@@H]4O)C[C@H]1OC(=O)/C=C/C=C/C=C/C=C/C(=O)Nc1c(O)c2ccc(O)c(Cl)c2oc1=O [SD8, Simocyclinone D8]
